In patent US7105527B2, “N4-acylcytosine nucleosides for treatment of viral infections” (priority 2001, dated 2006):
Like-named read-outs stand apart in the source and are kept apart here.

Tests used:
HIV-1LAl = experiment: Anti-HIV (in PBM cells) assay, reverse transcriptase readout; type: cell-based
Procedure: Anti-HIV-1 activity of the compounds was determined in human peripheral blood mononuclear (PBM) cells as described previously (Schinazi […]., Cannon D., Mathis R., Lloyd R. M. Jr., […]., St. Clair M., Wilson J., Furman P. A., Painter G., Choi […]. Antimicrob. Agents Chemother. 1992, 36, 2423; Schinazi […]., Cannon D., Xie […]., Smith G., Hahn E. Antimicrob. Agents Chemother. 1990, 34, 1061). Stock solutions ([…]) of the compounds were prepared in sterile DMSO and then diluted to the desired concentration in growth medium. […] Virus obtained from the cell supernatant was quantified on day 6 after infection by a reverse transcriptase assay using (rA)n.(dT)12.18 as template-primer. […] AZT was included as positive control. The antiviral EC50 and EC90 were obtained from the concentration-response curve using the median effective method described previously (Chou […]. Enzyme Regul. 1984, 22, 27-55; Belen'kii M. S. & Schinazi R. F. Antiviral Res. 1994, 25, 1-11).

HIV-1NL4-3 = experiment: Anti-HIV assay in MT-4 cells, consensus p24 assay; type: cell-based
Procedure: (§1) In a second antiviral testing system, the potency of the compounds was determined by measurement of viral RNA accumulation in HIV-1RF infected MT-2 cells (Bacheler L T, Paul M, Otto M J, Jadhav P K, Stone B A & Miller J A (1994) An assay for HIV RNIn infected cell lysates, and its use for rapid evaluation of antiviral efficacy. Antivir. Chem. Chemother. 5:111–121). The virus titer was established to determine the dilution producing 15 to 30 ng/RNA per well of HIV RNIn 3 days of infection. HIV-1 RNA was quantified using biotinylated capture and alkaline phosphatase-derivatized reporter oligonucleotides as described previously (Charvet A-S, Camplo M, Faury P, Graciet J C, Mourier N, Chermann J C & Kraus J L (1994) Inhibition of human immunodeficiency virus type 1 replication by phosphonoformate- and phosphonoacetate-2′,3′-dideoxy-3′-thiacytidine conjugates. J. Med. Chem. 37:2216–2223). In a third system, the effect of analogs on the replication of HIV-1NL4-3 was determined via the InterCompany Consortium consensus p24 assay as previously described (Jadhav P K & MacKay M F (1997) Cyclic urea amide: HIV-1 protease inhibitors with low nanomolar potency against both wild types and protease inhibitor resistant mutants of HIV. J. Med. Chem. 40:181–190). Recombinant viruses were recovered by transfecting the appropriate NL4-3 plasmid by lipofection. Virus stocks recovered 7 to 10 days post-transfection were titered on MT-4 cells to determine if the dilution produced 1,000 to 3,000 ng p24 in 4 days. This dilution was then used in drug susceptibility assays, where drug was added 24 h post infection of cells, and p24 quantified by ELISA 3 days later.

HepG2 cells = experiment: Cytotoxicity assay in HepG2 cells; type: cell-based; conditions: Table 2, read-out: Cytotoxicity in different cells (IC50, μM) HepG2
Procedure: (§2) The toxicity of the compounds was assessed in Vero, human PBM, CEM (human lymphoblastoid), MT-2, and HepG2 cells, as described previously (Schinazi […]., Cannon D. L., Xie […]., Smith […]. […] Cycloheximide was included as positive cytotoxic control, and untreated cells exposed to solvent were included as negative controls. The cytotoxicity IC50 was obtained from the concentration-response curve using the median effective method described previously (Chou […]. […] Belen'kii M. S. & Schinazi R. F.

human PBM cells = experiment: Cytotoxicity assay in PBM cells; type: cell-based; conditions: Table 2, read-out: Cytotoxicity in different cells (IC50, μM) PBM
Procedure: as §2

[1] = system: CEM (human lymphoblastoid) cells; experiment: Cytotoxicity assay in CEM cells; type: cell-based; conditions: Table 2, read-out: Cytotoxicity in different cells (IC50, μM) CEM
Procedure: as §2

Vero cells = experiment: Cytotoxicity assay in Vero cells; type: cell-based; conditions: Table 2, read-out: Cytotoxicity in different cells (IC50, μM) Vero
Procedure: as §2

HIV-1RF = experiment: Anti-HIV (in MT-2 cells) assay, viral RNA accumulation; type: cell-based; conditions: EC90, MT-2 cells, read-out: Anti-HIV-1 activity in different cells (EC90, μM) MT-2
Procedure: as §1

MT-2 cells = experiment: Cytotoxicity assay in MT-2 cells; type: cell-based; conditions: Table 2, read-out: Cytotoxicity in different cells (IC50, μM) MT-2
Procedure: as §2

[2] = Cytotoxicity assay in HepG2 cells; type: cell-based; conditions: human
Procedure: as §2

[3] = Cytotoxicity assay in PBM cells; type: cell-based, human; conditions: human, human PBM cells
Procedure: as §2

[4] = Cytotoxicity assay in CEM cells; type: cell-based, human; conditions: human, CEM lymphoblastoid cells
Procedure: as §2

[5] = Cytotoxicity assay in Vero cells; type: cell-based; conditions: African green monkey
Procedure: as §2

[6] = Cytotoxicity assay in MT-2 cells; type: cell-based; conditions: human
Procedure: as §2

[7] = Human immunodeficiency virus 1, PBMC, Table 1, read-out: Anti-HIV-1 activity in different cells (EC90, μM) PBM
[8] = Human immunodeficiency virus 1, MT4, Table 1, read-out: Anti-HIV-1 activity in different cells (EC90, μM) MT-4
[9] = Table 1, read-out: Cytotoxicity in different cells (IC50, μM) HepG2
[10] = Table 1, read-out: Cytotoxicity in different cells (IC50, μM) PBM
[11] = Table 1, read-out: Cytotoxicity in different cells (IC50, μM) CEM
[12] = Table 1, read-out: Cytotoxicity in different cells (IC50, μM) Vero
[13] = Human immunodeficiency virus 1, MT2, Table 1
[14] = Table 1, read-out: Cytotoxicity in different cells (IC50, μM) MT-2
[15] = Human immunodeficiency virus 1, PBMC, Table 2, read-out: Anti-HIV-1 activity in different cells (EC90, μM) PBM
[16] = Human immunodeficiency virus 1, MT4, Table 2, read-out: Anti-HIV-1 activity in different cells (EC90, μM) MT-4
[17] = Table 2, read-out: Cytotoxicity in different cells (IC50, μM) HepG2
[18] = Table 2, read-out: Cytotoxicity in different cells (IC50, μM) PBM
[19] = Table 2, read-out: Cytotoxicity in different cells (IC50, μM) CEM
[20] = Table 2, read-out: Cytotoxicity in different cells (IC50, μM) Vero
[21] = Human immunodeficiency virus 1, MT2, Table 2
[22] = Table 2, read-out: Cytotoxicity in different cells (IC50, μM) MT-2

SMILES | EC90 (HIV-1LAl; [7]) [µM] | EC90 (HIV-1NL4-3; [8]) [µM] | IC50 [2, 9] [µM] | IC50 [3, 10] [µM] | IC50 [4, 11] [µM] | IC50 [5, 12] [µM] | EC90 (HIV-1RF; [13]) [µM] | IC50 [6, 14] [µM] | other results
CCCC(=O)Nc1nc(=O)n([C@H]2C=C[C@@H](CO)O2)cc1F [Compound 60, β-D-N^4-Butyryl-2′,3′-didehydro-2′,3′-dideoxy-5-fluorocytidine] | – | – | – | – | – | – | – | – | EC90 (HIV-1LAl; Table 2, read-out: Anti-HIV-1 activity in different cells (EC90, μM) PBM): 1.89 µM; EC90 (HIV-1NL4-3; Table 2, read-out: Anti-HIV-1 activity in different cells (EC90, μM) MT-4): 3.1 µM; IC50 (HepG2 cells): > 100 µM; IC50 (human PBM cells): 52.4 µM; IC50 [1]: 12.2 µM; IC50 (Vero cells): > 100 µM; EC90 (HIV-1RF; Table 2): 2.4 µM; IC50 (MT-2 cells): > 50 µM
O=C(Nc1nc(=O)n([C@H]2CC[C@@H](CO)O2)cc1F)c1ccc(I)cc1 [Compound 10, β-D-2′,3′-Dideoxy-5-fluoro-N^4-(4-iodobenzoyl)cytidine] | 0.019 | 0.17 | > 100 | > 100 | > 100 | > 100 | 0.025 | > 50 | –
O=C(Nc1nc(=O)n([C@H]2C=C[C@@H](CO)O2)cc1F)c1ccc(Cl)cc1 [Compound 36, β-D-N^4-(4-Chlorobenzoyl)-2′,3′-didehydro-2′,3′-dideoxy-5-fluorocytidine] | – | – | – | – | – | – | – | – | EC90 (HIV-1LAl; [15]): 0.48 µM; EC90 (HIV-1NL4-3; [16]): 1.9 µM; IC50 [2, 17]: > 100 µM; IC50 [3, 18]: 11.9 µM; IC50 [4, 19]: 16.8 µM; IC50 [5, 20]: 72.2 µM; EC90 (HIV-1RF; [21]): 0.23 µM; IC50 [6, 22]: > 50 µM
CCc1ccc(C(=O)Nc2nc(=O)n([C@H]3CC[C@@H](CO)O3)cc2F)cc1 [Compound 25, β-D-2′,3′-Dideoxy-N^4-(4-ethylbenzoyl)-5-fluorocytidine] | 0.03 | 0.22 | > 100 | > 100 | 89.8 | > 100 | 0.12 | 50 | –
O=C(Nc1nc(=O)n([C@H]2CC[C@@H](CO)O2)cc1F)c1ccc(Br)cc1 [Compound 13, β-D-N^4-(4-bromobenzoyl)-2′,3′-dideoxy-5-fluorocytidine] | 0.03 | 0.3 | > 100 | > 100 | 31.6 | > 100 | 0.14 | > 50 | –
O=C(Nc1nc(=O)n([C@H]2C=C[C@@H](CO)O2)cc1F)c1ccc(F)cc1 [Compound 35, β-D-2′,3′-Didehydro-2′,3′-dideoxy-5-fluoro-N^4-(4-fluorobenzoyl)cytidine] | – | – | – | – | – | – | – | – | EC90 (HIV-1LAl; [15]): 1.08 µM; EC90 (HIV-1NL4-3; [16]): 7.2 µM; IC50 [2, 17]: 93.6 µM; IC50 [3, 18]: 53.1 µM; IC50 [4, 19]: 51.3 µM; IC50 [5, 20]: 83.1 µM; EC90 (HIV-1RF; [21]): 0.88 µM; IC50 [6, 22]: > 50 µM
O=C(Nc1nc(=O)n([C@H]2CC[C@@H](CO)O2)cc1F)c1cccc(F)c1 [Compound 14, β-D-2′,3′-Dideoxy-5-fluoro-M-(3-fluorobenzoyl)cytidine] | 0.106 | 0.43 | > 100 | > 100 | 80.8 | > 100 | 0.46 | > 50 | –
Cc1ccc(C(=O)Nc2nc(=O)n([C@H]3CC[C@@H](CO)O3)cc2F)cc1 [Compound 22, β-D-2′,3′-Dideoxy-5-fluoro-N^4-p-toluoylcytidine] | 0.028 | 0.23 | > 100 | > 100 | > 100 | > 100 | 0.31 | > 50 | –
O=C(Nc1nc(=O)n([C@H]2CC[C@@H](CO)O2)cc1F)c1ccc([N+](=O)[O-])cc1 [Compound 18, β-D-2′,3′-Dideoxy-5-fluoro-N^4-(4-nitrobenzoyl)cytidine] | 0.18 | 0.3 | > 100 | > 100 | > 100 | > 100 | 0.4 | > 50 | –
CCCc1ccc(C(=O)Nc2nc(=O)n([C@H]3CC[C@@H](CO)O3)cc2F)cc1 [Compound 26, β-D-2′,3′-Dideoxy-5-fluoro-N^4-(4-n-propylbenzoyl)cytidine] | 0.017 | 0.22 | > 100 | > 100 | > 100 | > 100 | 0.1 | > 50 | –
O=C(Nc1nc(=O)n([C@H]2C=C[C@@H](CO)O2)cc1F)c1ccc(Br)cc1 [Compound 37, β-D-N^4-(4-Bromobenzoyl)-2,3′-didehydro-2′,3′-dideoxy-5-fluorocytidine] | – | – | – | – | – | – | – | – | EC90 (HIV-1LAl; [15]): 1.4 µM; EC90 (HIV-1NL4-3; [16]): 5.2 µM; IC50 [2, 17]: > 100 µM; IC50 [3, 18]: 53 µM; IC50 [4, 19]: 24 µM; IC50 [5, 20]: 40.5 µM; EC90 (HIV-1RF; [21]): 0.14 µM; IC50 [6, 22]: > 50 µM
O=C(Nc1nc(=O)n([C@H]2CC[C@@H](CO)O2)cc1F)c1ccc(Cl)cc1 [Compound 12, β-D-N^4-(4-chlororobenzoyl)-2′,3′-dideoxy-5-fluorocytidine] | 0.02 | 0.37 | 7.3 | > 100 | 33.4 | > 100 | 0.22 | > 50 | –
O=C(Nc1nc(=O)n([C@H]2C=C[C@@H](CO)O2)cc1F)c1ccc(I)cc1 [Compound 38, β-D-2′,3′-Didehydro-2′,3′-dideoxy-5-fluoro-N^4-(4-iodobenzoyl)cytidine] | – | – | – | – | – | – | – | – | EC90 (HIV-1LAl; [15]): 0.76 µM; EC90 (HIV-1NL4-3; [16]): 0.85 µM; IC50 [2, 17]: > 100 µM; IC50 [3, 18]: 57 µM; IC50 [4, 19]: 11.4 µM; IC50 [5, 20]: 100 µM; EC90 (HIV-1RF; [21]): 0.31 µM; IC50 [6, 22]: > 50 µM
O=C(Nc1nc(=O)n([C@H]2CC[C@@H](CO)O2)cc1F)c1cccc(Cl)c1 [Compound 15, β-D-N^4-(3-Chlorobenzoyl)-2′,3′-dideoxy-5-fluorocytidine] | 0.08 | 0.51 | > 100 | > 100 | 68.1 | 91.6 | 0.4 | > 50 | –
